Results: patent US10112935B2, “Indazolyl thiadiazolamines and related compounds for inhibition of Rho-associated protein kinase and the treatment of disease” (Lycera Corporation, priority 2015, dated 2018)

Key:
[1] = target: GST-tagged human ROCK2 catalytic domain 1-553 (Homo sapiens (Human), UniProt O75116); test: Inhibition of Rho-associated protein kinase isoform 2 (LANCE Ultra ULight-CREBtide FRET kinase assay); format: biochemical; conditions: for IC50: 30 μM was the highest concentration analyzed; for Selectivity for ROCK2 over ROCK1 (IC50 ROCK1 / IC50 ROCK2): selectivity ROCK2 vs ROCK1
Protocol: (§1) Exemplary compounds were tested for ability to inhibit Rho-associated protein kinase isoform 1 (ROCK1) and Rho-associated protein kinase isoform 2 (ROCK2). Assay procedures and results are described below.
(§2) Protein constructs were purified from a baculovirus expression system. The peptide substrate was fluorescent LANCE® Ultra ULight-CREBtide: […] (PerkinElmer, # TRF0107-D). […] After a 90 minute incubation at room temperature on a shaker table, the kinase reaction was stopped by addition of 10 mM EDTA, and phosphorylation of the substrate was detected by adding 1 nM LANCE® Ultra Europium-anti-phospho-CREB (ser133) antibody (PerkinElmer, # TRF0200-D) and incubating for 60 minutes on a shaker at room temperature. The flurorescence resonance energy transfer (FRET) signals were read and analyzed on an Envision™ 2103 Multilabel Reader (Perkin Elmer).

[2] = target: GST-tagged human ROCK1 catalytic domain 1-477 (Homo sapiens (Human), UniProt Q13464); test: Inhibition of Rho-associated protein kinase isoform 1 (LANCE Ultra ULight-CREBtide FRET kinase assay); format: biochemical; conditions: 30 μM was the highest concentration analyzed
Protocol: as §1, §2

Sequence of GST-tagged human ROCK2 catalytic domain 1-553 (O75116 1-553): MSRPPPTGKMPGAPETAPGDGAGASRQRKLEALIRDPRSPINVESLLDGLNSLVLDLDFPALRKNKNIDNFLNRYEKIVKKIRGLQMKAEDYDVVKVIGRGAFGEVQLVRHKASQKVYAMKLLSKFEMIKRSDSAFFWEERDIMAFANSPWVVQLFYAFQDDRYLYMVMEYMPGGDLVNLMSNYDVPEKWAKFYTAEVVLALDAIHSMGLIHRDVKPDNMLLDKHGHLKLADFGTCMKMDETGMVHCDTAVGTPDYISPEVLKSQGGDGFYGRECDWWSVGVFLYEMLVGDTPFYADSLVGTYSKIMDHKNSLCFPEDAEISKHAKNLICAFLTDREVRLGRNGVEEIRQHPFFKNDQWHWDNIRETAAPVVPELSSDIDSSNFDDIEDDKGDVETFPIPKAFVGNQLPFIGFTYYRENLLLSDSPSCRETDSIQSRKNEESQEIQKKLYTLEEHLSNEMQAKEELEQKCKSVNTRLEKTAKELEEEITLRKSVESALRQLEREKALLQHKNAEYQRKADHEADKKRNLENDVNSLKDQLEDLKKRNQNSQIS
Sequence of GST-tagged human ROCK1 catalytic domain 1-477 (Q13464 1-477): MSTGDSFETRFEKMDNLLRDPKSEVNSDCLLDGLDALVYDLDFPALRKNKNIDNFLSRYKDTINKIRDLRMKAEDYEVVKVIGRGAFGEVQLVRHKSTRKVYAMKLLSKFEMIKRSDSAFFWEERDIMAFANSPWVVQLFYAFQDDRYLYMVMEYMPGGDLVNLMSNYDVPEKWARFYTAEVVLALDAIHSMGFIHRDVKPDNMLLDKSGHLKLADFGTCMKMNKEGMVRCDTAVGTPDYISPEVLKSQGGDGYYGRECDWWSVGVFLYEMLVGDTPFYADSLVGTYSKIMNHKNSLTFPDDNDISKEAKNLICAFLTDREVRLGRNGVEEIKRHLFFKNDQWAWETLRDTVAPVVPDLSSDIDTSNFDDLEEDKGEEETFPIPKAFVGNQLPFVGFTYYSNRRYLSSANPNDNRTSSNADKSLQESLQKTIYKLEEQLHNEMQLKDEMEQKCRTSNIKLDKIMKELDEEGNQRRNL

SMILES	IC50 [1] [µM]	Selectivity for ROCK2 over ROCK1 (IC50 ROCK1 / IC50 ROCK2) [1]	IC50 [2] [µM]
COc1cccc(-c2nnc(Nc3ccc4[nH]ncc4c3)s2)c1 [Example A-34]	< 1	>100	> 30
NC(=O)c1cc(-c2ncco2)cc(-c2nnc(Nc3ccc4[nH]ncc4c3Cl)s2)c1 [Example 46L]	< 1	>100	> 30
Nc1cccc(-c2nsc(Nc3ccc4[nH]ncc4c3)n2)c1 [Example 35CU]	1 to 15	>5	> 30
Nc1cncc(-c2nnc(Nc3ccc4[nH]ncc4c3)s2)c1.O=C(O)C(F)(F)F [Example 35CS]	1 to 15	<5	< 1
Cc1cc(C(=O)Nc2cccc(-c3nnc(Nc4ccc5[nH]ncc5c4)s3)c2)no1 [Example A-40]	< 1	>100	> 30
CC1CCCCC1C(=O)Nc1cccc(-c2nnc(Nc3ccc4[nH]ncc4c3Cl)s2)c1 (stereo not drawn) [Example 35H]	< 1	>5	1 to 15
N[C@@H]1CCN(c2nnc(Nc3ccc4[nH]ncc4c3)s2)C1 [Example A-38]	1 to 15	<5	1 to 15
CCS(=O)(=O)Nc1cncc(-c2nnc(Nc3ccc4[nH]ncc4c3)s2)c1.O=C(O)C(F)(F)F [Example 35CN]	1 to 15	>5	1 to 15
N#Cc1cccc(-c2nnc(Nc3ccc4[nH]ncc4c3Cl)s2)c1 [Example 35Z]	< 1	>100	> 30
CN1CCN(c2cc(-c3nnc(Nc4ccc5[nH]ncc5c4Cl)s3)ccn2)C1=O [Example 38, 1-(4-(5-((4-Chloro-1H-indazol-5-yl)amino)-1,3,4-thiadiazol-2-yl)pyridin-2-yl)-3-methylimidazolidin-2-one]	< 1	>5	< 1
Nc1cc(-c2nnc(Nc3ccc4[nH]ncc4c3)s2)ccn1.O=C(O)C(F)(F)F [Example 35CQ]	< 1	>100	> 30
Cc1cnoc1C(=O)Nc1cccc(-c2nnc(Nc3ccc4[nH]ncc4c3)s2)c1 [Example A-44]	< 1	>100	> 30
Cc1coc(-c2cc(-c3nnc(Nc4ccc5[nH]ncc5c4Cl)s3)ccn2)n1 [Example 40, N-(4-Chloro-1H-indazol-5-yl)-5-(2-(4-methyloxazol-2-yl)pyridin-4-yl)-1,3,4-thiadiazol-2-amine]	< 1	>5	< 1
OCCN(c1ccc2[nH]ncc2c1)c1nnc(-c2cnccn2)s1 [Example A-12]	> 30	<5	> 30
Cn1cc(CC(=O)Nc2cccc(-c3nnc(Nc4ccc5[nH]ncc5c4Cl)s3)c2)cn1 [Example 35BH]	< 1	>100	< 1
Cn1cc(C(=O)Nc2cncc(-c3nnc(Nc4ccc5[nH]ncc5c4)s3)c2)cn1.O=C(O)C(F)(F)F [Example 35CA]	< 1	<5	< 1

SMILES	IC50 [1] [µM]	Selectivity for ROCK2 over ROCK1 (IC50 ROCK1 / IC50 ROCK2) [1]	IC50 [2] [µM]
CC(C(=O)Nc1cccc(-c2nnc(Nc3ccc4[nH]ncc4c3Cl)s2)c1)c1ccccn1 (stereo not drawn) [Example 35AH]	< 1	<5	< 1
CC(=O)Nc1cc(CSC(C)=O)cc(-c2nnc(Nc3ccc4[nH]ncc4c3Cl)s2)c1 [Example 47, (S)-(3-Acetamido-5-(5-((4-chloro-1H-indazol-5-yl)amino)-1,3,4-thiadiazol-2-yl)benzyl)ethanethioate]	< 1	>100	> 30
O=C(Nc1cccc(-c2nnc(Nc3ccc4[nH]ncc4c3)s2)c1)c1cccnc1 [Example A-50]	< 1	>100	> 30
CC(C)NC(=O)COc1cccc(-c2nnc(Nc3ccc4[nH]ncc4c3)s2)c1 [Example 35CP]	< 1	>5	15 to 30
COc1ccc(C(=O)Nc2cccc(-c3nnc(Nc4ccc5[nH]ncc5c4Cl)s3)c2)cc1 [Example 35BS]	< 1	<5	< 1
OC1(c2cccc(-c3nnc(Nc4ccc5[nH]ncc5c4Cl)s3)c2)COC1 [Example 35AJ]	< 1	>75	> 30
O=C(c1ccnnc1)N1CCN(c2nnc(Nc3ccc4[nH]ncc4c3)s2)CC1 [Example A-36]	1 to 15	>5	> 30
CC(=O)Nc1cc(F)c(F)c(-c2nnc(Nc3ccc4[nH]ncc4c3)s2)c1 [Example 35CB]	< 1	>100	> 30
O=C(Nc1cccc(-c2nnc(Nc3ccc4[nH]ncc4c3Cl)s2)c1)N1CCNCC1 [Example 35T]	< 1	>5	< 1
O=C(Nc1cccc(-c2nnc(Nc3ccc4[nH]ncc4c3)s2)n1)c1c[nH]cn1 [Example A-31]	< 1	>100	> 30
O=C(Nc1cncc(-c2nnc(Nc3ccc4[nH]ncc4c3)s2)c1)c1c[nH]cn1 [Example A-37]	< 1	>100	> 30
Cc1cc(C(=O)Nc2cccc(-c3nnc(Nc4ccc5[nH]ncc5c4)s3)c2)[nH]n1 [Example A-39]	< 1	>5	1 to 15
c1cc(-c2cnco2)cc(-c2nnc(Nc3ccc4[nH]ncc4c3)s2)c1 [Example A-26]	> 30	<5	> 30
Cn1nccc1C(=O)Nc1cccc(-c2nnc(Nc3ccc4[nH]ncc4c3)s2)c1 [Example A-43]	< 1	>100	> 30
O=C(Cc1cnccn1)Nc1cccc(-c2nnc(Nc3ccc4[nH]ncc4c3Cl)s2)c1 [Example 35BP]	< 1	>5	< 1
O=C(Nc1cccc(-c2nnc(Nc3ccc4[nH]ncc4c3)s2)c1)c1cnn(CC(O)CO)c1 (stereo not drawn) [Example 35CG]	< 1	>5	< 1

Other lines, results leading:

IC50 [1] [µM]	Selectivity for ROCK2 over ROCK1 (IC50 ROCK1 / IC50 ROCK2) [1]	IC50 [2] [µM]	SMILES
< 1	>100	> 30	FC(F)(F)c1cn2cccc(-c3nnc(Nc4ccc5[nH]ncc5c4Cl)s3)c2n1 [Example 52C]
< 1	>100	> 30	Cn1c(C2CCOCC2)nc2c(-c3nnc(Nc4ccc5[nH]ncc5c4)s3)cccc21 [Example 56F]
< 1	>5	< 1	CC(=O)Nc1cc(CC(=O)O)cc(-c2nnc(Nc3ccc4[nH]ncc4c3Cl)s2)c1 [Example 75S]
> 30		> 30	O=C(Nc1cccc(-c2nnc(Nc3ccc4[nH]ncc4c3F)s2)c1)c1c[nH]cn1 [Example 75N]
< 1	>5	< 1	Cn1cc(C(=O)Nc2cc(CC(=O)O)cc(-c3nnc(Nc4ccc5[nH]ncc5c4Cl)s3)c2)cn1 [Example 48R]
< 1	>5	< 1	CC(=O)Nc1ccc(C)c(-c2nnc(Nc3ccc4[nH]ncc4c3Cl)s2)c1.O=C(O)C(F)(F)F [Example 48I]
> 30		> 30	CC(C)(C)c1cn2cccc(-c3nnc(Nc4ccc5[nH]ncc5c4Cl)s3)c2n1 [Example 75T]
> 30		> 30	Clc1c(Nc2nnc(-c3cccc4c3ncn4CCN3CCOCC3)s2)ccc2[nH]ncc12 [Example 75V]
< 1	>100	> 30	O=C(O)c1ccc(-c2cn3cccc(-c4nnc(Nc5ccc6[nH]ncc6c5Cl)s4)c3n2)cc1 [Example 50E]
1 to 15	>5	> 30	c1cc(-c2nnc(Nc3ccc4[nH]ncc4c3)s2)cc(N2CCNCC2)c1 [Example 75H]
< 1	>100	> 30	Clc1c(Nc2nnc(-c3cccc4[nH]c(-c5cccs5)nc34)s2)ccc2[nH]ncc12 [Example 56B]
< 1	>5	< 1	Clc1c(Nc2nnc(-c3cccn4cc(C5CCCO5)nc34)s2)ccc2[nH]ncc12 (stereo not drawn) [Example 50C]
< 1	>100	> 30	CC(=O)Nc1cc(-c2nnc(Nc3ccc4[nH]ncc4c3Cl)s2)ccc1C(F)(F)F [Example 48O]
< 1	>5	1 to 15	CN(C)Cc1cc(-c2ncco2)cc(-c2nnc(Nc3ccc4[nH]ncc4c3Cl)s2)c1 [Example 75P]
